Data taken from US6818208B2, “Use of a flavonoid extract of ginkgo biloba substantially devoid of terpenes, in the dentibuccal field, and composition containing such extract” (Societe de Conseils de Recherches et d'Applications …, priority 1996, dated 2004).

Target: T1, human leucocyte elastase (HLE) (Homo sapiens, UniProt P08246)
T1 sequence (P08246 30-267): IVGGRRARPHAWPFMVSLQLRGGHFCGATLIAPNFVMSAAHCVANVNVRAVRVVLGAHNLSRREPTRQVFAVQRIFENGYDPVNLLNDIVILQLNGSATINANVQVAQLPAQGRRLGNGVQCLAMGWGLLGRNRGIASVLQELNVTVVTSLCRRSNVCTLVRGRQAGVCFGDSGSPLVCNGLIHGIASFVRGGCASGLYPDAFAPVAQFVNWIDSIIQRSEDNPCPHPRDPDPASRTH
Experiment: Anti-elastasic activity ex vivo on frozen sections of human gums (elastic fibres remaining, morphometric quantification by image analysis)
Type: biochemical
Settings: HLE + PMSF, HLE 10 μm/ml, two hours
Procedure: The purpose of this study is therefore to study the anti-elastasic activity of an extract as defined above, alone or in combination with ceramides. This activity is evaluated on sections of human gums.
The ceramides used, of vegetable origin, are obtained according to a process as described in Patent FR 2676936 incorporated by way of reference, a process which comprises exctraction from wheat, using a polar extraction solvent followed by recrystallization from an organic solvent. They are essentially composed of glucosylceramides and ceramides.
For this purpose, the elastic fibre network is subjected to human leucocyte elastase (HLE), with or without an anti-elastasic product. The elastic fibres remaining after enzymatic action are stained with (+) catechin.
Frozen sections of 8 μm are carried out from 5 samples obtained from biopsies of normal buccal mucosa, taken during dental extractions.
In a first stage, the concentration in human leucocyte elastase required for the destruction of elastic fibres is determined: leucocyte elastase is applied to the skin sections for two hours at ambient temperature and in a humid atmosphere; after fixing in acetone and dehydration in ethanol at […], the remaining elastic fibres are stained with (+) catechin. Total destruction of the elastic fibres is obtained in the presence of 10 μm/ml of human leucocyte elastase.
The anti-elastasic activity of the products is compared with that of (PMSF), a powerful elastase inhibitor.

SMILES: O=S(=O)(F)Cc1ccccc1 [PMSF]
- % of elastic fibres remaining after treatment with human leucocyte elastase (lower corium dermis): 70%
- % of elastic fibres remaining after treatment with human leucocyte elastase (medium corium dermis): 55%
- % of elastic fibres remaining after treatment with human leucocyte elastase (upper corium dermis): 25%
